# In ChEMBL document CHEMBL3885881, “DrugMatrix”:
# Organism: Rattus norvegicus
# Experiment: DrugMatrix - Regimen: Daily Repeat
# Format: toxicity, organism-based, Sprague-Dawley
# Parameters: regimen Daily Repeat, gender Male, age 6-8 weeks
# Conditions: in vivo, po, route oral GAVAGE, vehicle 100 % WATER
# [1] = 1 mg/kg, 72 h, tissue Plasma, dose level Low, time 3 day
# [2] = 1 mg/kg, 120 h, tissue Blood, dose level Low, time 5 day
# [3] = 1 mg/kg, 120 h, tissue Plasma, dose level Low, time 5 day
# [4] = 10 mg/kg, 72 h, tissue Blood, dose level High, time 3 day
# [5] = 10 mg/kg, 72 h, tissue Plasma, dose level High, time 3 day
# [6] = 10 mg/kg, 120 h, tissue Blood, dose level High, time 5 day
# [7] = 10 mg/kg, 120 h, tissue Plasma, dose level High, time 5 day
sequence,measurement,setting,value
THIMEROSAL,TOTAL BILIRUBIN,[1],0.2 mg/dL
same,TOTAL PROTEIN,[1],5.73 G/DL
same,ABSOLUTE BASOPHIL,[2],0 CELLS/uL
same,ABSOLUTE EOSINOPHIL,[2],50.33 CELLS/uL
same,ABSOLUTE MONOCYTE,[2],268.67 CELLS/uL
same,ABSOLUTE SEGMENTED NEUTROPHIL,[2],1091 CELLS/uL
same,BASOPHIL,[2],0%
same,EOSINOPHIL,[2],0.33%
same,ERYTHROCYTE COUNT,[2],5.58 x10E6/uL
same,HEMATOCRIT,[2],35.07%
same,LEUKOCYTE COUNT,[2],11.73 x10E3/uL
same,LYMPHOCYTE,[2],88%
same,MEAN CORPUSCULAR HEMOGLOBIN,[2],25.23 pg
same,MEAN CORPUSCULAR HEMOGLOBIN CONCENTRATION,[2],40.13 G/DL
same,NUCLEATED RED BLOOD CELLS,[2],0 /100WBC
same,PLATELET COUNT,[2],1316.33 x10E3/uL
same,ALANINE AMINOTRANSFERASE,[3],43.33 u/L
same,ALKALINE PHOSPHATASE,[3],369 u/L
same,ASPARTATE AMINOTRANSFERASE,[3],83.33 u/L
same,BLOOD UREA NITROGEN,[3],15.67 mg/dL
same,CARBON DIOXIDE,[3],30.33 mmol/L
same,CHOLESTEROL,[3],67.33 mg/dL
same,CREATINE PHOSPHOKINASE,[3],227.33 u/L
same,CREATININE,[3],0.2 mg/dL
same,GLUCOSE,[3],177.33 mg/dL
same,LACTATE DEHYDROGENASE,[3],246 u/L
same,LIPASE,[3],10 u/L
same,PHOSPHORUS,[3],11.2 mg/dL
same,POTASSIUM,[3],6.65 MEQ/L
same,TOTAL BILIRUBIN,[3],0.27 mg/dL
same,TOTAL PROTEIN,[3],5.93 G/DL
same,URIC ACID,[3],1.4 mg/dL
same,ABSOLUTE BASOPHIL,[4],0 CELLS/uL
same,ABSOLUTE EOSINOPHIL,[4],0 CELLS/uL
same,ABSOLUTE MONOCYTE,[4],196.33 CELLS/uL
same,ABSOLUTE SEGMENTED NEUTROPHIL,[4],1492 CELLS/uL
same,BASOPHIL,[4],0%
same,EOSINOPHIL,[4],0%
same,ERYTHROCYTE COUNT,[4],5.18 x10E6/uL
same,HEMATOCRIT,[4],33.3%
same,HEMOGLOBIN,[4],13.3 G/DL
same,LEUKOCYTE COUNT,[4],14.17 x10E3/uL
same,LYMPHOCYTE,[4],88.67%
same,MEAN CORPUSCULAR HEMOGLOBIN,[4],25.73 pg
same,MEAN CORPUSCULAR HEMOGLOBIN CONCENTRATION,[4],39.93 G/DL
same,NEUTROPHIL,[4],10%
same,NUCLEATED RED BLOOD CELLS,[4],0.33 /100WBC
same,PLATELET COUNT,[4],1209 x10E3/uL
same,ALANINE AMINOTRANSFERASE,[5],54.33 u/L
same,ALBUMIN,[5],3.7 G/DL
same,ALKALINE PHOSPHATASE,[5],440.67 u/L
same,ASPARTATE AMINOTRANSFERASE,[5],82.67 u/L
same,BLOOD UREA NITROGEN,[5],15 mg/dL
same,CARBON DIOXIDE,[5],30 mmol/L
same,CHOLESTEROL,[5],107.67 mg/dL
same,CREATINE PHOSPHOKINASE,[5],183.33 u/L
same,CREATININE,[5],0.16 mg/dL
same,LACTATE DEHYDROGENASE,[5],137 u/L
same,PHOSPHORUS,[5],11 mg/dL
same,POTASSIUM,[5],6.64 MEQ/L
same,TOTAL BILIRUBIN,[5],0.2 mg/dL
same,TOTAL PROTEIN,[5],5.57 G/DL
same,ABSOLUTE BASOPHIL,[6],0 CELLS/uL
same,ABSOLUTE EOSINOPHIL,[6],0 CELLS/uL
same,ABSOLUTE LYMPHOCYTE,[6],10043.33 CELLS/uL
same,ABSOLUTE MONOCYTE,[6],291.67 CELLS/uL
same,ABSOLUTE SEGMENTED NEUTROPHIL,[6],1665 CELLS/uL
same,BASOPHIL,[6],0%
same,EOSINOPHIL,[6],0%
same,ERYTHROCYTE COUNT,[6],6.38 x10E6/uL
same,HEMATOCRIT,[6],39.67%
same,HEMOGLOBIN,[6],15.6 G/DL
same,LEUKOCYTE COUNT,[6],12 x10E3/uL
same,LYMPHOCYTE,[6],84.67%
same,MEAN CORPUSCULAR HEMOGLOBIN,[6],24.57 pg
same,NEUTROPHIL,[6],13%
same,NUCLEATED RED BLOOD CELLS,[6],0 /100WBC
same,PLATELET COUNT,[6],1253 x10E3/uL
same,ALANINE AMINOTRANSFERASE,[7],56.33 u/L
same,ALKALINE PHOSPHATASE,[7],463.67 u/L
same,ASPARTATE AMINOTRANSFERASE,[7],83.67 u/L
same,BLOOD UREA NITROGEN,[7],15.67 mg/dL
same,CHOLESTEROL,[7],116.33 mg/dL
same,CREATINE PHOSPHOKINASE,[7],208.33 u/L
same,CREATININE,[7],0.22 mg/dL
same,GLUCOSE,[7],156 mg/dL
same,LACTATE DEHYDROGENASE,[7],176.33 u/L
same,PHOSPHORUS,[7],10.43 mg/dL
same,POTASSIUM,[7],6.38 MEQ/L
same,TOTAL BILIRUBIN,[7],0.1 mg/dL
same,TOTAL PROTEIN,[7],6 G/DL
same,URIC ACID,[7],1.63 mg/dL
